Series [1] in a line: Distribution ratio (logD) in ionic liquid-based aqueous two-phase system (Ammoeng 110/K2HPO4). Conditions: Ammoeng 110 (0.60–0.65 g, filled to 4 g) / K2HPO4-KH2PO4 buffer, vortex 45 s, 5 min phase separation, LC–MS after EZ:faast SPE and derivatization (peptides after 6 M HCl hydrolysis, 20 h, 110 °C), duplicates, numbers only plotted (Fig. 2, Fig. 3).
On the set-up of series [2]: method as in 2 sources, ref Hardy (1985) ||| ref Jakubke and Jeschkeit (1982). The note with it: isoelectric point of free amino acid, cited from earlier work.
Details of series [3]: method as in Kyte and Dolittle (1982). The note with it: hydropathy scale; ref Kyte and Dolittle (1982); cited from earlier work.

“Also recorded” adds a separate entry of the source. Read-outs that look alike come from different tables or passages of the source. Marks after values point to notes of the source that are not given here. Where a SMILES comes first, the peptide text is derived from it.

On to `C[C@H](N)C(=O)N[C@@H](C)C(=O)N[C@@H](CC(=O)O)C(=O)N[C@@H](C)C(=O)N[C@@H](C)C(=O)O` [AADAA], for which the “Distribution in IL-ATPS (logD, D = c upper phase / c lower phase), in words” value in series [1] (pH 6.0) and in series [1] (pH 7.0) was “concentrated in the ionic liquid-containing upper phase” each time.
With `C[C@H](N)C(=O)N[C@@H](C)C(=O)NCC(=O)N[C@@H](C)C(=O)N[C@@H](C)C(=O)O` [AAGAA] (H-AAGAA-OH), the “Distribution in IL-ATPS (logD, D = c upper phase / c lower phase), in words” value is given as “almost equally distributed between the two phases” in series [1] (pH 6.0) and “almost equally distributed between the two phases; also recorded: slightly more concentrated in the ionic liquid rich upper phase” in series [1] (pH 7.0).
For `CC(C)C[C@H](N)C(=O)O` [Leucine], the “Distribution in IL-ATPS (logD, D = c upper phase / c lower phase), in words” value was “distributed equally between the ionic liquid-rich upper and the phosphate-rich lower phase” in series [1] (pH 6.0); “marginally higher concentrated in the phosphate buffer-rich lower phase” in series [1] (pH 7.0).
Take `C[C@H](N)C(=O)N[C@@H](C)C(=O)N[C@@H](Cc1ccccc1)C(=O)N[C@@H](C)C(=O)N[C@@H](C)C(=O)O` [AAFAA] (H-AAFAA-OH): the “Distribution in IL-ATPS (logD, D = c upper phase / c lower phase), in words” value in series [1] (pH 6.0) and in series [1] (pH 7.0) was “concentrated in the ionic liquid-containing upper phase” each time.
Consider `C[C@H](N)C(=O)N[C@@H](C)C(=O)N[C@@H](CO)C(=O)N[C@@H](C)C(=O)N[C@@H](C)C(=O)O` [AASAA] (H-AASAA-OH), for which the “Distribution in IL-ATPS (logD, D = c upper phase / c lower phase), in words” value in series [1] (pH 6.0) and in series [1] (pH 7.0) was “concentrated in the ionic liquid-containing upper phase” in each case.
Take `N[C@@H](CCC(=O)O)C(=O)O` [Glutamic acid]: the pI in series [2] (ref Hardy (1985)) is reported as 3.24^a. Moreover, the “Distribution in IL-ATPS (logD, D = c upper phase / c lower phase), in words” value in series [1] (pH 6.0) and in series [1] (pH 7.0) was “strongly enriched in the ionic liquids-containing upper phase” in each case.
For `NCC(=O)O` [Glycine], the pI in series [2] (ref Hardy (1985)) is listed as 5.97^a. Moreover, the “Distribution in IL-ATPS (logD, D = c upper phase / c lower phase), in words” value in series [1] (pH 6.0) was “distributed equally between the ionic liquid-rich upper and the phosphate-rich lower phase”; in series [1] (pH 7.0) it was “distributed more into the ionic liquid-rich upper phase”.
In the case of `N[C@@H](CO)C(=O)O` [Serine], the pI in series [2] (ref Hardy (1985)) is given as 5.68^a. Moreover, the “Distribution in IL-ATPS (logD, D = c upper phase / c lower phase), in words” value in series [1] (pH 6.0) is “distributed equally between the ionic liquid-rich upper and the phosphate-rich lower phase”; in series [1] (pH 7.0), “distributed more into the ionic liquid-rich upper phase”.
For the molecule `C[C@H](N)C(=O)N[C@@H](C)C(=O)N[C@@H](Cc1c[nH]cn1)C(=O)N[C@@H](C)C(=O)N[C@@H](C)C(=O)O` [AAHAA], the “Distribution in IL-ATPS (logD, D = c upper phase / c lower phase), in words” value in series [1] (pH 6.0) is recorded as “enriched in the upper phase”; in series [1] (pH 7.0), “accumulation of AAHAA in the upper phase was also detected, but not as strong as at pH 6.0”.
For `N[C@@H](Cc1c[nH]cn1)C(=O)O` [Histidine], the pI in series [2] (ref Hardy (1985)) was 7.59^a. For the same molecule, the “Distribution in IL-ATPS (logD, D = c upper phase / c lower phase), in words” value in series [1] (pH 6.0) and in series [1] (pH 7.0) was “strongly enriched in the ionic liquids-containing upper phase” each time.
Turning to `CC(C)C[C@H](NC(=O)[C@H](C)NC(=O)[C@H](C)N)C(=O)N[C@@H](C)C(=O)N[C@@H](C)C(=O)O` [AALAA] (H-AALAA-OH), the “Distribution in IL-ATPS (logD, D = c upper phase / c lower phase), in words” value in series [1] (pH 6.0) is given as “almost equally distributed between the two phases”; in series [1] (pH 7.0), “almost equally distributed between the two phases; also recorded: slightly more concentrated in the ionic liquid rich upper phase”.
On to `N[C@@H](Cc1ccccc1)C(=O)O` [Phenylalanine], for which the pI in series [2] (ref Jakubke and Jeschkeit (1982)) is 5.48^b. Moreover, in series [3], the “Hydrophobicity of the side chain” value was 2.8^c. The “Distribution in IL-ATPS (logD, D = c upper phase / c lower phase), in words” value in series [1] (pH 6.0) and in series [1] (pH 7.0) was “strongly enriched in the ionic liquids-containing upper phase” each time.

Source of the values: publication PMC5918145, “Quantification of amino acids and peptides in an ionic liquid based aqueous two-phase system by LC–MS analysis” (AMB Express, 2018).
